Test results from paper PMC3998834 (Biopolymers, 2014).

Tested on: BT-474 cells
Assay: Antiproliferative assay
Format: cell-based
Settings: Homo sapiens, BT-474, 72 h, read-out: Antiproliferative activity IC50, BT-474; SD

In the case of CS(=O)(=O)CCNCc1ccc(-c2ccc3ncnc(Nc4ccc(OCc5cccc(F)c5)c(Cl)c4)c3c2)o1 [lapatinib], the IC50 is reported as 0.025 ± 0.004 µM.
